# Read-outs that look alike come from different tables or passages of the source.
# Target: T1, Human BCL-XL protein (N-terminal HiBiT tagged BCL-XL in HT1080 cells) (Homo sapiens, UniProt Q07817)
# T1 construct: expressed in transfected cells; host or cells: HT-1080 (ATCC CCL-121), stably transduced with lentivirus pLV-UBC-N-HiBiT-BCL-XL-PGK-puro and selected with puromycin
# Experiment: HiBiT based degradation assay
# Assay type: cell-based
# Settings: HT1080 cells expressing HiBiT-BCL-XL; for Ymin (6 h) / Ymin (24 h): BCL-XL degradation normalized with DMSO control; for DC50: BCL-XL degradation
# Method in brief: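 This HiBiT degradation assay measured loss of BCL-XL in HT1080 cells that stably express an N-terminal HiBiT-BCL-XL fusion delivered by lentivirus. Cells were added to compound-spotted 384-well plates, and luminescence was read on a PHERAstar FSX reader. Signal was expressed relative to DMSO controls, curves were fitted by four-parameter logistic regression, and for hook-shaped curves the Ymin point served as the bottom plateau when calculating EC50.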
# T1 sequence (Q07817 whole entry): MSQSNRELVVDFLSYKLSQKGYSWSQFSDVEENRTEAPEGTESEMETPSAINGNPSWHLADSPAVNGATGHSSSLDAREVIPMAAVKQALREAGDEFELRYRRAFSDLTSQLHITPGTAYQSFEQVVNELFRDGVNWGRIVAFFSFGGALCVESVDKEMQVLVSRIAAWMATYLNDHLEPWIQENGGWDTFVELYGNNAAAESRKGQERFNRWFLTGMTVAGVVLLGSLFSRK
Compound,Ymin (6 h),"DC50 (6 h, read-out: EC50 (6 h)) [nM]",Ymin (24 h),"DC50 (24 h, read-out: EC50 (24 h)) [nM]"
"Cc1c(-c2ccc(N3CCc4cccc(C(=O)Nc5nc6ccccc6s5)c4C3)nc2C(=O)NCCCCCCCCCCCC(=O)Nc2ccc3c(C4CCC(=O)NC4=O)nn(C)c3c2)cnn1CC12CC3CC(CC(C3)C1)C2 (stereo not shown) [Compound 113, 2-(5-(1-((3r,5r,7r)-adamantan-1-ylmethyl)-5-methyl-1H-pyrazol-4-yl)-6-((12-((3-(2,6-dioxopiperidin-3-yl)-1-methyl-1H-indazol-6-yl)amino)-12-oxododecyl)carbamoyl)pyridin-2-yl)-N-(benzo[d]thiazol-2-yl)-1,2,3,4-tetrahydroisoquinoline-8-carboxamide]",B (50% ≤ Ymin < 70%),100 to 1000,,
"Cc1c(-c2ccc(N3CCc4cccc(C(=O)Nc5nc6ccccc6s5)c4C3)nc2C(=O)NCCCCCCCC(=O)Nc2cccc3c(C4CCC(=O)NC4=O)nn(C)c23)cnn1CC12CC3CC(CC(C3)C1)C2 (stereo not shown) [Compound 114, 2-[5-[1-(1-adamantylmethyl)-5-methyl-pyrazol-4-yl]-6-[[8-[[3-(2,6-dioxo-3-piperidyl)-1-methyl-indazol-7-yl]amino]-8-oxo-octyl]carbamoyl]-2-pyridyl]-N-(1,3-benzothiazol-2-yl)-3,4-dihydro-1H-isoquinoline-8-carboxamide]",A (Ymin < 50%),< 100,,
"Cc1c(-c2ccc(N3CCc4cccc(C(=O)Nc5nc6ccccc6s5)c4C3)nc2C(=O)NCC(=O)Nc2ccc3c(C4CCC(=O)NC4=O)nn(C)c3c2)cnn1CC12CC3CC(CC(C3)C1)C2 [Compound 115, 2-(5-(1-((1R,3S)-adamantan-1-ylmethyl)-5-methyl-1H-pyrazol-4-yl)-6-((2-((3-(2,6-dioxopiperidin-3-yl)-1-methyl-1H-indazol-6-yl)amino)-2-oxoethyl)carbamoyl)pyridin-2-yl)-N-(benzo[d]thiazol-2-yl)-1,2,3,4-tetrahydroisoquinoline-8-carboxamide]",B (50% ≤ Ymin < 70%),< 100,,
"Cc1c(OCCCN2C[C@@H](C)N(CC(=O)Nc3ccc4c(C5CCC(=O)NC5=O)nn(C)c4c3)[C@@H](C)C2)cccc1-c1ccc(N2CCc3cccc(C(=O)Nc4nc5ccccc5s4)c3C2)nc1C(=O)O (stereo partly drawn) [Compound 116a, 6-[8-(1,3-benzothiazol-2-ylcarbamoyl)-3,4-dihydro-1H-isoquinolin-2-yl]-3-[3-[3-[(3S,5R)-4-[2-[[3-(2,6-dioxo-3-piperidyl)-1-methyl-indazol-6-yl]amino]-2-oxo-ethyl]-3,5-dimethyl-piperazin-1-yl]propoxy]-2-methyl-phenyl]pyridine-2-carboxylic acid]",A (Ymin < 50%),< 100,A (Ymin < 50%),< 100
"Cc1c(OCCCN2C[C@@H](C)N(CC(=O)Nc3cccc4c(C5CCC(=O)NC5=O)nn(C)c34)[C@@H](C)C2)cccc1-c1ccc(N2CCc3cccc(C(=O)Nc4nc5ccccc5s4)c3C2)nc1C(=O)O (stereo partly drawn) [Compound 117a, 6-[8-(1,3-benzothiazol-2-ylcarbamoyl)-3,4-dihydro-1H-isoquinolin-2-yl]-3-[3-[3-[(3S,5R)-4-[2-[[3-(2,6-dioxo-3-piperidyl)-1-methyl-indazol-7-yl]amino]-2-oxo-ethyl]-3,5-dimethyl-piperazin-1-yl]propoxy]-2-methyl-phenyl]pyridine-2-carboxylic acid]",B (50% ≤ Ymin < 70%),< 100,B (50% ≤ Ymin < 70%),< 100
"Cc1c(OCCOc2ccc(CC(=O)Nc3cccc4c(C5CCC(=O)NC5=O)nn(C)c34)cc2)cccc1-c1ccc(N2CCc3cccc(C(=O)Nc4nc5ccccc5s4)c3C2)nc1C(=O)O (stereo not shown) [Compound 118, 6-[8-(1,3-benzothiazol-2-ylcarbamoyl)-3,4-dihydro-1H-isoquinolin-2-yl]-3-[3-[2-[4-[2-[[3-(2,6-dioxo-3-piperidyl)-1-methyl-indazol-7-yl]amino]-2-oxo-ethyl]phenoxy]ethoxy]-2-methyl-phenyl]pyridine-2-carboxylic acid]",B (50% ≤ Ymin < 70%),100 to 1000,B (50% ≤ Ymin < 70%),1000 to 10000
"Cc1cc(OCCCN2CCN(CC(=O)Nc3ccc4c(C5CCC(=O)NC5=O)nn(C)c4c3)CC2)ccc1-c1ccc(N2CCc3cccc(C(=O)Nc4nc5ccccc5s4)c3C2)nc1C(=O)O (stereo not shown) [Compound 119, 6-[8-(1,3-benzothiazol-2-ylcarbamoyl)-3,4-dihydro-1H-isoquinolin-2-yl]-3-[4-[3-[4-[2-[[3-(2,6-dioxo-3-piperidyl)-1-methyl-indazol-6-yl]amino]-2-oxo-ethyl]piperazin-1-yl]propoxy]-2-methyl-phenyl]pyridine-2-carboxylic acid]",A (Ymin < 50%),< 100,A (Ymin < 50%),< 100
"Cc1c(OCCCN2CCC(CC(=O)Nc3ccc4c(C5CCC(=O)NC5=O)nn(C)c4c3)CC2)cccc1-c1ccc(N2CCc3cccc(C(=O)Nc4nc5ccccc5s4)c3C2)nc1C(=O)O (stereo not shown) [Compound 120, 6-[8-(1,3-benzothiazol-2-ylcarbamoyl)-3,4-dihydro-1H-isoquinolin-2-yl]-3-[3-[3-[4-[2-[[3-(2,6-dioxo-3-piperidyl)-1-methyl-indazol-6-yl]amino]-2-oxo-ethyl]-1-piperidyl]propoxy]-2-methyl-phenyl]pyridine-2-carboxylic acid]",B (50% ≤ Ymin < 70%),< 100,B (50% ≤ Ymin < 70%),< 100
"Cc1c(OCCCC2CCN(CC(=O)Nc3ccc4c(C5CCC(=O)NC5=O)nn(C)c4c3)CC2)cccc1-c1ccc(N2CCc3cccc(C(=O)Nc4nc5ccccc5s4)c3C2)nc1C(=O)O (stereo not shown) [Compound 121, 6-(8-(Benzo[d]thiazol-2-ylcarbamoyl)-3,4-dihydroisoquinolin-2(1H)-yl)-3-(3-(3-(1-(2-((3-(2,6-dioxopiperidin-3-yl)-1-methyl-1H-indazol-6-yl)amino)-2-oxoethyl)piperidin-4-yl)propoxy)-2-methylphenyl)picolinic acid]",A (Ymin < 50%),< 100,A (Ymin < 50%),< 100

# The next lines start with the values.
Ymin (6 h),"DC50 (6 h, read-out: EC50 (6 h)) [nM]",Ymin (24 h),"DC50 (24 h, read-out: EC50 (24 h)) [nM]",Compound
B (50% ≤ Ymin < 70%),< 100,,,"Cc1c(-c2ccc(N3CCc4cccc(C(=O)Nc5nc6ccccc6s5)c4C3)nc2C(=O)NCCCCCC(=O)Nc2cccc3c(C4CCC(=O)NC4=O)nn(C)c23)cnn1CC12CC3CC(CC(C3)C1)C2 (stereo not shown) [Compound 108, 2-(5-(1-(((3r,5r,7r)-adamantan-1-yl)methyl)-5-methyl-1H-pyrazol-4-yl)-6-((6-((3-(2,6-dioxopiperidin-3-yl)-1-methyl-1H-indazol-7-yl)amino)-6-oxohexyl)carbamoyl)pyridin-2-yl)-N-(benzo[d]thiazol-2-yl)-1,2,3,4-tetrahydroisoquinoline-8-carboxamide]"
B (50% ≤ Ymin < 70%),< 100,,,"Cc1c(-c2ccc(N3CCc4cccc(C(=O)Nc5nc6ccccc6s5)c4C3)nc2C(=O)NCCCCCCCCCC(=O)Nc2cccc3c(C4CCC(=O)NC4=O)nn(C)c23)cnn1CC12CC3CC(CC(C3)C1)C2 [Compound 109, 2-(5-(1-((3R, 5R, 7R)-adamantan-1-ylmethyl)-5-methyl-1H-pyrazol-4-yl)-6-((10-((3-(2,6-dioxopiperidin-3-yl)-1-methyl-1H-indazol-7-yl)amino)-10-oxodecyl)carbamoyl)pyridin-2-yl)-N-(benzo[d]thiazol-2-yl)-1,2,3,4-tetrahydroisoquinoline-8-carboxamide]"
B (50% ≤ Ymin < 70%),< 100,,,"Cc1c(-c2ccc(N3CCc4cccc(C(=O)Nc5nc6ccccc6s5)c4C3)nc2C(=O)NCCCCCCCCCCCC(=O)Nc2cccc3c(C4CCC(=O)NC4=O)nn(C)c23)cnn1CC12CC3CC(CC(C3)C1)C2 (stereo not shown) [Compound 110, 2-(5-(1-((3r,5r,7r)-adamantan-1-ylmethyl)-5-methyl-1H-pyrazol-4-yl)-6-((12-((3-(2,6-dioxopiperidin-3-yl)-1-methyl-1H-indazol-7-yl)amino)-12-oxododecyl)carbamoyl)pyridin-2-yl)-N-(benzo[d]thiazol-2-yl)-1,2,3,4-tetrahydroisoquinoline-8-carboxamide]"
B (50% ≤ Ymin < 70%),< 100,,,"Cc1c(-c2ccc(N3CCc4cccc(C(=O)Nc5nc6ccccc6s5)c4C3)nc2C(=O)NCCCCCC(=O)Nc2ccc3c(C4CCC(=O)NC4=O)nn(C)c3c2)cnn1CC12CC3CC(CC(C3)C1)C2 (stereo not shown) [Compound 111, 2-(5-(1-(((3r,5r,7r)-adamantan-1-yl)methyl)-5-methyl-1H-pyrazol-4-yl)-6-((6-((3-(2,6-dioxopiperidin-3-yl)-1-methyl-1H-indazol-6-yl)amino)-6-oxohexyl)carbamoyl)pyridin-2-yl)-N-(benzo[d]thiazol-2-yl)-1,2,3,4-tetrahydroisoquinoline-8-carboxamide]"
B (50% ≤ Ymin < 70%),< 100,,,"Cc1c(-c2ccc(N3CCc4cccc(C(=O)Nc5nc6ccccc6s5)c4C3)nc2C(=O)NCCCCCCCCCC(=O)Nc2ccc3c(C4CCC(=O)NC4=O)nn(C)c3c2)cnn1CC12CC3CC(CC(C3)C1)C2 (stereo not shown) [Compound 112, 2-[5-[1-(1-adamantylmethyl)-5-methyl-pyrazol-4-yl]-6-[[10-[[3-(2,6-dioxo-3-piperidyl)-1-methyl-indazol-6-yl]amino]-10-oxo-decyl]carbamoyl]-2-pyridyl]-N-(1,3-benzothiazol-2-yl)-3,4-dihydro-1H-isoquinoline-8-carboxamide]"

# Source: patent US20240238423A9, “TETRAHYDROISOQUINOLINE HETEROBIFUNCTIONAL BCL-XL DEGRADERS” (Treeline Biosciences, Inc., priority 2022, published 2024)
